System: 266295-075-R-J1-PDC spheroid viability
Assay: Anticancer human tumor 266295-075-R-J1-PDC patient-derived head and neck squamous carcinoma cell line growth inhibition [POLQ]
Details: spheroids with HUVEC and MSC; for IC50: curve of first compound; for viability, T/C: stronger effect = lower value
In short: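 PDC + HUVEC + MSC complex spheroids; POLQ inhibitors ± partner drugs; top conc. at/near clinical Cmax, else 10 microM (SN-38 1 microM), half-log dilutions; 37 degrees C, 5% CO2.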

[1] = second compound 0.0316 µM, first compound 0.0316 µM
[2] = second compound 0.0316 µM, first compound 0.1 µM
[3] = second compound 0.0316 µM, first compound 0.316 µM
[4] = second compound 0.0316 µM, first compound 1 µM
[5] = second compound 0.1 µM, first compound 0.0316 µM
[6] = second compound 0.1 µM, first compound 0.1 µM
[7] = second compound 0.1 µM, first compound 0.316 µM
[8] = second compound 0.1 µM, first compound 1 µM
[9] = second compound 0.316 µM, first compound 0.0316 µM
[10] = second compound 0.316 µM, first compound 0.1 µM
[11] = second compound 0.316 µM, first compound 0.316 µM
[12] = second compound 0.316 µM, first compound 1 µM
[13] = second compound 1 µM, first compound 0.0316 µM
[14] = second compound 1 µM, first compound 0.1 µM
[15] = second compound 1 µM, first compound 0.316 µM
[16] = second compound 1 µM, first compound 1 µM
[17] = second compound 3.16 µM, first compound 0.0316 µM
[18] = second compound 3.16 µM, first compound 0.1 µM
[19] = second compound 3.16 µM, first compound 0.316 µM
[20] = second compound 3.16 µM, first compound 1 µM
[21] = second compound 10 µM, first compound 0.0316 µM
[22] = second compound 10 µM, first compound 0.1 µM
[23] = second compound 10 µM, first compound 0.316 µM
[24] = second compound 10 µM, first compound 1 µM
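Note: spheroids exposed to compounds for seven days before readout.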

SMILES: COc1cccc2c1C(=O)c1c(O)c3c(c(O)c1C2=O)CC(O)(C(=O)CO)CC3OC1CC(N)C(O)C(C)O1 (centres undefined) + COC1C(OC(N)=O)C(O)C(Oc2ccc3c(O)c(NC(=O)c4ccc(O)c(CC=C(C)C)c4)c(=O)oc3c2C)OC1(C)C
- IC50 (second compound 0.0316 µM): 3.17 µM
- IC50 (second compound 0.1 µM): 2.56 µM
- IC50 (second compound 0.316 µM): 3.45 µM
- IC50 (second compound 1 µM): 2.64 µM
- IC50 (second compound 3.16 µM): 2.16 µM
- IC50 (second compound 10 µM): 3.72 µM
- viability, T/C [1]: 95.5%
- viability, T/C [2]: 104%
- viability, T/C [3]: 82.4%
- viability, T/C [4]: 75.8%
- viability, T/C (second compound 0.0316 µM, first compound 3.16 µM): 51.8%
- viability, T/C (second compound 0.0316 µM, first compound 10 µM): 2.47%
- viability, T/C [5]: 107%
- viability, T/C [6]: 96%
- viability, T/C [7]: 74.2%
- viability, T/C [8]: 74.7%
- viability, T/C (second compound 0.1 µM, first compound 3.16 µM): 50.4%
- viability, T/C (second compound 0.1 µM, first compound 10 µM): 2.16%
- viability, T/C [9]: 102%
- viability, T/C [10]: 96%
- viability, T/C [11]: 76.7%
- viability, T/C [12]: 74.8%
- viability, T/C (second compound 0.316 µM, first compound 3.16 µM): 61.4%
- viability, T/C (second compound 0.316 µM, first compound 10 µM): 2.49%
- viability, T/C [13]: 103%
- viability, T/C [14]: 91.4%
- viability, T/C [15]: 77%
- viability, T/C [16]: 64.6%
- viability, T/C (second compound 1 µM, first compound 3.16 µM): 57.5%
- viability, T/C (second compound 1 µM, first compound 10 µM): 2.7%
- viability, T/C [17]: 98.8%
- viability, T/C [18]: 90.4%
- viability, T/C [19]: 78.4%
- viability, T/C [20]: 68.7%
- viability, T/C (second compound 3.16 µM, first compound 3.16 µM): 42.3%
- viability, T/C (second compound 3.16 µM, first compound 10 µM): 2.41%
- viability, T/C [21]: 99.5%
- viability, T/C [22]: 83.1%
- viability, T/C [23]: 83.1%
- viability, T/C [24]: 75%
- viability, T/C (second compound 10 µM, first compound 3.16 µM): 62.2%
- viability, T/C (second compound 10 µM, first compound 10 µM): 1.87%

SMILES: COc1cccc(OCCCN)c1-c1cc(Nc2cnc(C#N)cn2)n[nH]1 + COC1C(OC(N)=O)C(O)C(Oc2ccc3c(O)c(NC(=O)c4ccc(O)c(CC=C(C)C)c4)c(=O)oc3c2C)OC1(C)C
- IC50 (second compound 0.0316 µM): > 1 µM
- IC50 (second compound 0.1 µM): > 1 µM
- IC50 (second compound 0.316 µM): > 1 µM
- IC50 (second compound 1 µM): > 1 µM
- IC50 (second compound 3.16 µM): > 1 µM
- IC50 (second compound 10 µM): > 1 µM
- viability, T/C (second compound 0.0316 µM, first compound 0.00316 µM): 87.7%
- viability, T/C (second compound 0.0316 µM, first compound 0.01 µM): 81.7%
- viability, T/C [1]: 71.1%
- viability, T/C [2]: 64.2%
- viability, T/C [3]: 67.1%
- viability, T/C [4]: 71.7%
- viability, T/C (second compound 0.1 µM, first compound 0.00316 µM): 109%
- viability, T/C (second compound 0.1 µM, first compound 0.01 µM): 89.8%
- viability, T/C [5]: 84%
- viability, T/C [6]: 68.7%
- viability, T/C [7]: 65.6%
- viability, T/C [8]: 75.6%
- viability, T/C (second compound 0.316 µM, first compound 0.00316 µM): 88.8%
- viability, T/C (second compound 0.316 µM, first compound 0.01 µM): 85.4%
- viability, T/C [9]: 78.6%
- viability, T/C [10]: 70.6%
- viability, T/C [11]: 81.1%
- viability, T/C [12]: 70%
- viability, T/C (second compound 1 µM, first compound 0.00316 µM): 96.7%
- viability, T/C (second compound 1 µM, first compound 0.01 µM): 89.8%
- viability, T/C [13]: 76.4%
- viability, T/C [14]: 66.1%
- viability, T/C [15]: 72%
- viability, T/C [16]: 69.1%
- viability, T/C (second compound 3.16 µM, first compound 0.00316 µM): 92.3%
- viability, T/C (second compound 3.16 µM, first compound 0.01 µM): 96.7%
- viability, T/C [17]: 78.6%
- viability, T/C [18]: 74.3%
- viability, T/C [19]: 78.3%
- viability, T/C [20]: 76.1%
- viability, T/C (second compound 10 µM, first compound 0.00316 µM): 87.6%
- viability, T/C (second compound 10 µM, first compound 0.01 µM): 90.9%
- viability, T/C [21]: 70.4%
- viability, T/C [22]: 65.1%
- viability, T/C [23]: 66.5%
- viability, T/C [24]: 69.6%
